The values that follow come from patent EP1480941B1, “UREA DERIVATIVES AS HIV ASPARTYL PROTEASE INHIBITORS” (priority 2002, dated 2003).

This test deals with HIV protease (Human immunodeficiency virus type 1 group M subtype B, UniProt P04585). The experiment in a line: Enzymatic (fluorometric FRET) assay for determining the inhibition constant (Ki). As to conditions: EDANS/DABCYL substrate, equation of Henderson. The class given is biochemical. The text has this:
Enzymatic assay for determining the inhibition constant (Ki) of synthetic compounds targeting the HIV protease
This is a fluorometric assay based on the cleavage by protease of a substrate carrying a donor group (EDANS) and an acceptor group (DABCYL) on each side of the cleavage site, interacting together through fluorescence resonance energy transfer (FRET) as described by Matayoshi et al. (Science 247:[…], 1990).
After calculation of Vo and Vi, the inhibition constant (Ki) of the compound is determined using the equation of Henderson: (Vo)/(Vi) = 1 + ([I])/(Kiapp) Where Ki = (Kiapp)/((1 + [S])/(Km)) [formula] where Vo = the enzyme's initial velocity Vi = the enzyme velocity in the presence of the inhibitory compound, [I] = inhibitor concentration, [S] = substrate concentration, Km = Michaelis-Menten constant and Kiapp = apparent Ki
Graphs are traced and the Ki determined using GraphPad Prism software v. 3.0.

Read-outs that look alike come from different tables or passages of the source.

For `Cc1ccc(S(=O)(=O)N(CC(C)C)C(CCCCNC(=N)NCc2ccccc2)C(=O)O)cc1` (racemic) [Example 30, Nα-isobutyl-Nα-(4-methylbenzenesulfonyl)-Nω-benzyl-DL-homoarginine], the Ki (read-out: Ki) is above 300 nM.
For `Cc1ccc(S(=O)(=O)N(CC(C)C)[C@@H](CCCCNC(=O)NCCc2ccccc2)C(=O)O)cc1` [Example 1, Nα-isobutyl-Nα-(4-methylbenzenesulfonyl)-Nε-(2'-phenethylaminocarbonyl)-L-lysine], the inhibitory constant (Ki) (Ki) turned out to be 204 nM.
With `Cc1ccc(S(=O)(=O)N(CC(C)C)[C@@H](CCCCNC(=O)NCc2ccccn2)C(=O)O)cc1` [Example 3, Nα-isobutyl-Nα-(4-methylbenzenesulfonyl)-N∈-[N'-(2-picolyl)aminocarbonyl]-L-lysine], the inhibitory constant (Ki) (read-out: Ki) was above 300 nM.
On the same count and under the same terms, the figure for `Cc1ccc(S(=O)(=O)N(CC(C)C)[C@@H](CCCCNC(=O)NCCc2ccc(O)cc2)C(=O)O)cc1` [Example 5, Nα-isobutyl-Nα-(4-methylbenzenesulfonyl)-N∈-[2'-(4-hydroxyphenethyl)aminocarbonyl]-L-lysine] is above 300 nM; for `Cc1ccc(S(=O)(=O)N(CC(C)C)[C@@H](CCCCNC(=O)N(CC(C)C)C2CCCCC2)C(=O)O)cc1` [Example 7, Nα-isobutyl-Nα-(4-methylbenzenesulfonyl)-N∈-[(N'-cyclohexyl-N'-isobutyl)aminocarbonyl]-L-lysine] it is above 300 nM.
`Cc1ccc(S(=O)(=O)N(CC(C)C)[C@@H](CCCCNC(=O)N[C@@H](Cc2ccccc2)C(N)=O)C(=O)O)cc1` [Example 8, Nα-isobutyl-Nα-(4-methylbenzenesulfonyl)-N∈-[L-phenylalanylamide-N'a-carbonyl]-L-lysine] showed an inhibition constant Ki (Ki) of 60 nM.
The same measure, in the same setting: the result for `Cc1ccc(S(=O)(=O)N(CC(C)C)[C@@H](CCCCNC(=O)N[C@H](Cc2ccccc2)C(N)=O)C(=O)O)cc1` [Example 9, Nα-isobutyl-Nα-(4-methylbenzenesulfonyl)-N∈-[D-phenylalanylamide-N'α-carbonyl]-L-lysine] reads 131 nM; that for `Cc1ccc(S(=O)(=O)N(CC(C)C)[C@@H](CCCCNC(=O)NNC(=O)c2ccccc2O)C(=O)O)cc1` [Example 10, Nα-isobutyl-Nα-(4-methylbenzenesulfonyl)-N∈-[N2-(2-hydroxybenzoyl)-hydrazino-N1-carbonyl]-L-lysine], 55 nM; that for `Cc1ccc(S(=O)(=O)N(CC(C)C)[C@@H](CCCCNC(=O)NNC(=O)c2ccncc2)C(=O)O)cc1` [Example 11, Nα-isobutyl-Nα-(4-methylbenzenesulfonyl)-N∈-[N2-(pyridine-4-carbonyl)-hydrazino-N1-carbonyl]-L-lysine], above 300 nM.
As for `Cc1ccc(S(=O)(=O)N(CC(C)C)[C@@H](CCCCNC(=O)N[C@@H](Cc2ccccc2)C(=O)NCC(C)C)C(=O)O)cc1` [Example 12, Nα-isobutyl-Nα-(4-methylbenzenesulfonyl)-N∈-(L-phenylalanyl-N'-isobutylamide-N'α-carbonyl)-L-lysine], the affinity (Ki) corresponds to a Ki of 47 nM.
Same read-out and setting: the result for `Cc1ccc(S(=O)(=O)N(CC(C)C)[C@@H](CCCCNC(=O)N[C@@H](Cc2ccccc2)C(=O)Nc2ccccc2)C(=O)O)cc1` [Example 13, Nα-isobutyl-Nα-(4-methylbenzenesulfonyl)-N∈-(L-phenylalanyl-N'-phenylamide-N'α-carbonyl)-L-lysine] reads 60 nM.
As for `Cc1ccc(S(=O)(=O)N(CC(C)C)C(CCCCNC(=S)NC2CCc3ccccc32)C(=O)O)cc1` [Example 14, (1S,TRS) Nα-isobutyl-Nα-(4-methylbenzenesulfonyl)-N∈-(indanyl-1'-aminothiocarbonyl)-S-lysine], the Ki (read-out: Ki) is above 300 nM.
Same read-out and setting: the figure for `Cc1ccc(S(=O)(=O)N(CC(C)C)[C@@H](CCCCNC(=O)NCCN2CCCCC2)C(=O)O)cc1` [Example 17, Nα-isobutyl-Nα-(4-methylbenzenesulfonyl)-N∈-[2'-(1-pyperidinyl)ethylaminocarbonyl]-L-lysine] is above 300 nM.
In the case of `COC(=O)[C@H](CCCCNC(=O)NCCc1ccccn1)N(CC(C)C)S(=O)(=O)c1ccc(C)cc1` [Example 19, Nα-isobutyl-Nα-(4-methylbenzenesulfonyl)-N∈-[(2'-pyridyl)ethylaminocarbonyl]-L-lysine methyl ester], under “Ki”, the Ki is above 300 nM.
With `Cc1ccc(S(=O)(=O)N(CC(C)C)[C@@H](CCCCNC(=O)Nc2nccc3ccccc23)C(=O)O)cc1` [Example 20, Nα-isobutyl-Nα-(4-methylbenzenesulfonyl)-N∈-(1'-isoquinolylaminocarbonyl)-L-lysine], the Ki (read-out: Ki) is above 300 nM.
Same read-out and setting: the result for `Cc1ccc(S(=O)(=O)N(CC(C)C)[C@@H](CCCCNC(=O)N[C@@H]2c3ccccc3C[C@@H]2O)C(=O)O)cc1` [Example 22, (1S,1'R,2'S) Nα-isobutyl-Nα-(4-methylbenzenesulfonyl)-N∈-(cis-2'-hydroxyindanyl-1'-aminocarbonyl)-S-lysine] reads above 300 nM; that for `Cc1ccc(S(=O)(=O)N(CC(C)C)[C@@H](CCCCNC(=O)N[C@H]2c3ccccc3C[C@H]2O)C(=O)O)cc1` [Example 23, (1S,1'S,2'R) Nα-isobutyl-Nα-(4-methylbenzenesulfonyl)-N∈-(cis-2'-hydroxyindanyl-1'-aminocarbonyl)-S-lysine], above 300 nM.
Same read-out and setting: the result for `Cc1ccc(S(=O)(=O)N(CC(C)C)[C@@H](CCCCNC(=O)N[C@H]2CCc3ccccc32)C(=O)O)cc1` [Example 25, (15,1'S) Nα-isobutyl-Nα-(4-methylbenzenesulfonyl)-N∈-(indanyl-1'-aminocarbonyl)-S-lysine] reads above 300 nM; that for `Cc1ccc(S(=O)(=O)N(CC(C)C)[C@H](CCCCNC(=O)N[C@H]2CCc3ccccc32)C(=O)O)cc1` [Example 26, (1R,1'S) Nα-isobutyl-Nα-(4-methylbenzenesulfonyl)-N∈-(indanyl-1'-aminocarbonyl)-R-lysine], above 300 nM.
As for `Cc1ccc(S(=O)(=O)N(CC(C)C)[C@H](CCCCNC(=O)N[C@@H]2CCc3ccccc32)C(=O)O)cc1` [Example 27, (1R,1'R) Nα-isobutyl-Nα-(4-methylbenzenesulfonyl)-N∈-(indanyl-1'-aminocarbonyl)-R-lysine], the Ki was above 300 nM.
As to `Cc1ccc(S(=O)(=O)N(CC(C)C)[C@@H](CCCCNC(=O)N(CCc2ccccc2)Cc2ccccc2)C(=O)O)cc1` [Example 31, Nα-isobutyl-Nα-(4-methylbenzenesulfonyl)-N∈-[(N'-benzyl-N'-phenethyl)aminocarbonyl]-L-lysine], the Ki (read-out: Ki) is above 300 nM.
On the same count and under the same terms, the result for `Cc1ccc(S(=O)(=O)N(CC(C)C)[C@@H](CCCCNC(=O)N(CC(C)C)CC(C)C)C(=O)O)cc1` [Example 35, Nα-isobutyl-Nα-(4-methylbenzenesulfonyl)-N∈-(N',N'-diisobutylaminocarbonyl)-L-lysine] reads above 300 nM.
As to `Cc1ccc(S(=O)(=O)N(CC(C)C)[C@H](CO)CCCCNC(=O)N(Cc2ccncc2)Cc2ccncc2)cc1` [Example 46, (2S) 2-N-isobutyl-2-N-(4-methylbenzenesulfonyl)-6-N-[N',N'-di-(4-picolyl)aminocarbonyl]-2,6-diaminohexanol], under “read-out: Ki”, the Ki was above 300 nM.
Still for that read-out and setting: the result for `CC(C)CN([C@H](CO)CCCCNC(=O)N(Cc1ccncc1)Cc1ccncc1)S(=O)(=O)c1ccc(N)cc1` [Example 51, (2S) 2-N-(4-aminobenzenesulfonyl)-2-N-isobutyl-6-N [N',N'-di-(4-picolyl)aminocarbonyl]-2,6-diaminohexanol] reads above 300 nM.
The same measure, in the same setting: the figure for `Cc1ccc(S(=O)(=O)N(CC(C)C)[C@@H](CCCCNC(=O)N(Cc2ccccc2)Cc2cccc(N)c2)C(=O)O)cc1` [Example 58, Nα-isobutyl-Nα-(4-methylbenzenesulfonyl)-N∈-[N'-(3-aminobenzyl)-N'-benzylaminocarbonyl]-L-lysine] is above 300 nM.
Still for that read-out and setting: the figure for `CC(C)CN([C@H](CO)CCCCNC(=O)N(Cc1cccnc1)Cc1cccc(F)c1)S(=O)(=O)c1ccc(N)cc1` [Example 72, (2S) 2-N-(4-aminobenzenesulfonyl)-2-N-isobutyl-6-N-[N'-(3-fluorobenzyl)-N'-(3-picolyl)aminocarbonyl]-2,6-diaminohexanol] is above 300 nM.
Take `CC(C)CN([C@H](CO)CCCCNC(=O)N(Cc1cccnc1)Cc1ccccc1F)S(=O)(=O)c1ccc(N)cc1` [Example 73, (2S) 2-N-(4-aminobenzenesulfonyl)-2-N-isobutyl-6-N-[N'-(2-fluorobenzyl)-N'-(3-picolyl)aminocarbonyl]-2,6-diaminohexanol]: the Ki (read-out: Ki) was above 300 nM.
The same measure, in the same setting: the result for `CC(C)CN([C@H](CO)CCCCNC(=O)N(Cc1ccccc1)Cc1ccsc1)S(=O)(=O)c1ccc(N)cc1` [Example 76, (2S) 2-N-(4-aminobenzenesulfonyl)-2-N-isobutyl-6-N-[N'-benzyl-N'-(3-thiophenemethyl)aminocarbonyl]-2,6-diaminohexanol] reads 11 nM.
Same read-out and setting: the result for `COc1ccc(CNC(=O)NCCCC[C@@H](CO)N(CC(C)C)S(=O)(=O)c2ccc(N)cc2)cc1` [Example 77, (2S) 2-N-(4-aminobenzenesulfonyl)-2-N-isobutyl-6-N-(N'-4-methoxybenzylaminocarbonyl)-2,6-diaminohexanol] reads above 300 nM; that for `COc1cccc(OC)c1CNC(=O)NCCCC[C@@H](CO)N(CC(C)C)S(=O)(=O)c1ccc(N)cc1` [Example 78, (2S) 2-N-(4-aminobenzenesulfonyl)-2-N-isobutyl-6-N-(N'-2,6-dimethoxybenzylaminocarbonyl)-2,6-diaminohexanol], above 300 nM.

What is called Ki is a measure of affinity in units of concentration, obtained from inhibition or displacement.
